Measurements reported in US20060111305A1, “Metabolites of certain [1,4]diazepino[6,7,1-ij]quinoline derivatives and methods of preparation and use thereof” (Wyeth, priority 2004, published 2006).
Read-outs that look alike come from different tables or passages of the source. Marks after values point to notes of the source that are not given here.

Key:
[1] = Metabolites of DCDQ generated by liver microsomes and hepatocytes, LC/MS characterization (Table 6); type: in vitro ADME; conditions: MM mouse, RM rat, DM dog, HM human liver microsomes; HH human hepatocytes
From the text: An Agilent Model 1100 HPLC system (Agilent Technologies, Palo Alto, Calif.) including an autosampler and diode array UV detector was used for LC/MS analysis. The UV detector was set to monitor 200 to 400 nm. For selected LC/MS analysis, radiochromatograms were acquired using a β-Ram model 3 radioactivity flow detector (IN/US Systems Inc., Tampa, Fla.) equipped with a solid scintillant flow cell. Separations were accomplished on a Phenomenex Luna C18(2) column (2×150 mm, 5 μm) under the same conditions as described above.
The mass spectrometer used for metabolite characterization was a Micromass Q-TOF-2 quadrupole time-of-flight hybrid mass spectrometer ([…].). The mass spectrometer was equipped with an electrospray ionization (ESI) interface and operated in the positive ionization mode. Collision energy settings of 5 and 30 eV were used for full MS and MS/MS scans, respectively. Settings for the mass spectrometer are listed below.
Mass spectra were obtained by LC/MS and LC/MS/MS analysis for DCDQ and its metabolites.

[2] = Rat urinary excretion and metabolite profiles after single oral 5 mg/kg [14C]DCDQ; type: in vivo, Sprague-Dawley rats; conditions: for Chromatographic distribution of radioactivity in male rat urine / Percentage of dose for urinary metabolites in rats: oral 5 mg/kg, mean n = 3; for radioactive dose recovered in urine: male rats
Protocol: At sacrifice, blood samples were collected by cardiac puncture into tubes containing EDTA as the anticoagulant and placing them on ice. Aliquots of 50 μL were removed for combustion and determination of radioactivity content. Plasma was immediately obtained from the remaining blood by centrifugation at 4° C. Brains were excised after perfusion with 50 mL of chilled sterile saline. Urine samples were collected on dry ice at intervals of 0-8 and 8-24 hour post-dosing. Feces were collected at intervals of 0-8 and 8-24 hr post-dosing at room temperature and were homogenized as described previously. The biological specimens and aliquots of the dosing solution at pre- and post-dose were stored at approximately −70° C. until analyzed.
Plasma (20 μL) and urine (50 μL) aliquots were analyzed for radioactivity concentrations. Radioactivity determinations of dose, plasma and urine were made with a Tri-Carb Model 3100 TR/LL liquid scintillation counter (LSC) (Perkin Elmer) using 10 mL of Ultima Gold as the scintillation fluid.
Urine was analyzed for radioactivity concentration as and analyzed for metabolite profiles by direct injection onto the HPLC column. LC/MS analyses for metabolite identification were also carried out with urine samples.
(§1) A Waters model 2690 HPLC system (Waters Corp., Milford, Mass.) with a built-in autosampler was used for analysis. Separations were accomplished on a Phenomenex Luna C18(2) column (150×2.0 mm, 5 μm) (Phenomenex, Torrance, Calif.). The sample chamber of the autosampler was maintained at 4° C., while the column was at ambient temperature of about 20° C. A variable wavelength UV detector set to monitor 250 nm and a Flo-One β Model A525 radioactivity detector described above were used for data acquisition. The HPLC mobile phase consisted of 10 mM ammonium acetate, pH 4.5 (A) and methanol (B), and was delivered at 0.2 mL/min. Chromatographic condition A was used for dose analysis, while condition B was used for analysis of urine and plasma, brain and fecal extracts.

[3] = Rat plasma metabolite profiles after single oral 5 mg/kg [14C]DCDQ; type: in vivo, Sprague-Dawley rats; conditions: for concentration at 2 h / concentration at 8 h / concentration at 4 h: Sprague-Dawley, rat, plasma, mean n = 3, read-out: Estimated plasma concentration in rats
Protocol: Plasma samples were analyzed for metabolite profiles by HPLC. Aliquots of 1.5 mL plasma were mixed with 3.0 mL methanol, placed on ice for about 10 minutes, and then centrifuged. The supernatant was transferred to a clean tube. The protein pellets were extracted once with 3.0 mL methanol. The supernatants from precipitation and extraction of each sample were pooled, mixed, and evaporated at 22° C. under nitrogen in a Zymark TurboVap LV (Caliper Life Sciences, Hopkinton, Mass.) to about 0.3 mL. The concentrated extract was centrifuged, the supernatant volume measured and extraction efficiency was determined by analyzing duplicate 10 μL aliquots for radioactivity. An aliquot of the supernatant (50-200 μL) was analyzed by HPLC with radioactivity flow detection. Plasma extracts were also analyzed by LC/MS.
as §1

Compound | Source [1] | Chromatographic distribution of radioactivity in male rat urine ([2]; 0-8 hr) [%] | Percentage of dose for urinary metabolites in rats ([2]; 0-8 hr) [%] | Chromatographic distribution of radioactivity in male rat urine ([2]; 8-24 hr) [%] | Percentage of dose for urinary metabolites in rats ([2]; 8-24 hr) [%] | concentration at 2 h ([3]; female, 2 hr) [ng/mL] | concentration at 8 h ([3]; female, 8 hr) [ng/mL] | concentration at 2 h ([3]; male, 2 hr) [ng/mL] | concentration at 4 h ([3]; male, 4 hr) [ng/mL] | concentration at 8 h ([3]; male, 8 hr) [ng/mL] | Chromatographic distribution of radioactivity in rat plasma ([3]; female, 2 hr, mean n = 3) | Chromatographic distribution of radioactivity in rat plasma ([3]; female, 8 hr, mean n = 3) | Chromatographic distribution of radioactivity in rat plasma ([3]; male, 2 hr, mean n = 3) [%] | Chromatographic distribution of radioactivity in rat plasma ([3]; male, 4 hr, mean n = 3) [%] | Chromatographic distribution of radioactivity in rat plasma ([3]; male, 8 hr, mean n = 3) [%] | Percentage of dose for urinary metabolites in rats ([2]; 0-24 hr) [%] | Estimated plasma concentration in rats ([3]; female, 2 hr, mean n = 3) | radioactive dose recovered in urine ([2]; 0-8 hour period) [%] | radioactive dose recovered in urine ([2]; 8-24 hour period) [%] | radioactive dose recovered in urine ([2]; first 24 hours post-dose) [%]
c1cc2c3c(c1)[C@H]1CCC[C@H]1CN3CCNC2 [DCDQ, (9aR,12aS)-4,5,6,7,9,9a,10,11,12,12a-decahydro-cyclopenta[c][1,4]diazepine[6,7,1-ij]quinoline, reference compound] | MM, RM, DM, HM, HH | 1.29 | 0.42 | 1.46 | 0.51 | 132 | 49.4 | 86.9 | 90.8 | 58.7 | 20% | 15% | 14 | 14 | 13 |  |  |  |  | 
OC1CN2C[C@@H]3CCC[C@@H]3c3cccc(c32)CN1 (stereo partly shown) [Metabolite M1, hydroxy DCDQ] | HM, HH | 26.9 | 8.67 | 22.5 | 7.74 | 12.6 | 6.52 | 88.4 | 59.7 | 41.9 | 2.0^d % | 1.9^d % | 14 | 9.1 | 8.9 | 16.4 |  |  |  | 
c1cc2c3c(c1)[C@H]1CCC[C@H]1CN3CCNC2 [[^14C]DCDQ] |  |  |  |  |  |  |  |  |  |  |  |  |  |  |  |  |  | 32.5 | 34.2 | 66.7±5.0

Now from value to compound, other results behind:

Source [1] | Chromatographic distribution of radioactivity in male rat urine ([2]; 0-8 hr) [%] | Percentage of dose for urinary metabolites in rats ([2]; 0-8 hr) [%] | Chromatographic distribution of radioactivity in male rat urine ([2]; 8-24 hr) [%] | Percentage of dose for urinary metabolites in rats ([2]; 8-24 hr) [%] | concentration at 2 h ([3]; female, 2 hr) [ng/mL] | concentration at 8 h ([3]; female, 8 hr) [ng/mL] | concentration at 2 h ([3]; male, 2 hr) [ng/mL] | concentration at 4 h ([3]; male, 4 hr) [ng/mL] | concentration at 8 h ([3]; male, 8 hr) [ng/mL] | Chromatographic distribution of radioactivity in rat plasma ([3]; female, 2 hr, mean n = 3) | Chromatographic distribution of radioactivity in rat plasma ([3]; female, 8 hr, mean n = 3) | Chromatographic distribution of radioactivity in rat plasma ([3]; male, 2 hr, mean n = 3) [%] | Chromatographic distribution of radioactivity in rat plasma ([3]; male, 4 hr, mean n = 3) [%] | Chromatographic distribution of radioactivity in rat plasma ([3]; male, 8 hr, mean n = 3) [%] | Percentage of dose for urinary metabolites in rats ([2]; 0-24 hr) [%] | Estimated plasma concentration in rats ([3]; female, 2 hr, mean n = 3) | Compound | radioactive dose recovered in urine ([2]; 0-8 hour period) [%] | radioactive dose recovered in urine ([2]; 8-24 hour period) [%] | radioactive dose recovered in urine ([2]; first 24 hours post-dose) [%]
MM, RM, DM, HM, HH | 9.51 | 3.16 | 5.83 | 1.94 |  | 4.4 | 32.3 | 22.6 | 20 | BQL | 1.5^e % | 5.2 | 3.4 | 4.3 | 5.09 | BQL | OC1[C@@H]2CCC[C@@H]2c2cccc3c2N1CCNC3 (stereo partly shown) [Metabolite M2, hydroxy DCDQ] |  |  | 
DM, HM, HH |  |  |  |  |  |  |  |  |  |  |  |  |  |  |  |  | [O-][N+]12CCN=Cc3cccc(c31)[C@H]1CCC[C@H]1C2 (stereo partly shown) [Metabolite M5, DCDQ imine N-oxide] |  |  | 
DM, HM, HH |  |  |  |  |  |  |  |  |  |  |  |  |  |  |  |  | O=C(O)[C@H]1O[C@@H](OC(=O)N2CCN3C[C@@H]4CCC[C@@H]4c4cccc(c43)C2)[C@H](O)[C@@H](O)[C@@H]1O [Metabolite M6, carbamoyl glucuronide of DCDQ] |  |  | 
 | 9.68 | 3.16 | 10.1 | 3.44 | 35.6 | 17.5 | 63.6 | 62.1 | 53 | 5.4^d % | 5.6% | 10 | 9.4 | 12 | 6.60 |  | O=C1CC[C@@H]2c3cccc4c3N(CCNC4)C[C@H]12 [Metabolite M7, 17-keto DCDQ] |  |  | 
